Results on six molecules are retold here after US20050070596A1, “Methods for treatment of inflammatory diseases using CT-3 or analogs thereof” (priority 2003, published 2005).

In one series the target is CB2 (Homo sapiens, UniProt P34972). The settings on record: cited from earlier work.
Another series concerns TPA-induced erythema. The settings on record: applied topically; cited from earlier work.
The conditions of series [1]: in vivo; cited from earlier work.
The test system of series [2] is mouse peritoneal macrophages activated by LPS and IFNγ. The settings on record: cited from earlier work.
In a further series the test system is human leukocytes. The settings on record: cited from earlier work; for IFNγ synthesis: high concentrations (5-24µg/ml); for IFNγ production: low concentrations.
Another series deals with PBQ-induced writhing. The settings on record: given orally at doses up to 10 mg/kg; cited from earlier work.
For a further series, the system named is Legionella. The settings on record: mouse, in vivo; cited from earlier work.
The subject of series [3] is mRNA of IL-1, IL-6 and TNFα. The settings on record: BALB/C mice injected with cannabidiol; cited from earlier work.
Series [4] has as its system mouse experimental model of multiple sclerosis. The series is described as follows: inhibition of spasticity in a mouse experimental model of multiple sclerosis. The settings on record: for spasticity (limb stiffness assessed by the force required to bend the limb): ***P<0.001 compared to baseline. In kind it is in vivo. How it is done:
FIG. 7 illustrates cannabinoid-mediated inhibition of spasticity in a mouse experimental model of multiple sclerosis^35. Compounds were injected intravenously (i.v.) and the level of THC (1 mg/kg i.v.) was matched to the THC content in a cannabis extract (obtained under UK Home Office Licence). […] Nabilone (1 mg/kg i.v.) a synthetic analogue of THC (generously supplied by Cambridge Biomedicals, Cesamet) could inhibit spasticity to maximal levels (˜45-50% inhibition). Mean change compared to baseline (n=10/group)

The test system of another series is people with chronic pain. The settings on record: oral; chronic pain (n=60), those with MS; cited from earlier work.
For series [5], the system named is levadopa-induced dyskinesia in Parkinson's disease. The settings on record: in vivo; cited from earlier work.
Series [6] relates to tics in Tourette's syndrome. The settings on record: oral; cited from earlier work.
Another series concerns the target CB1 receptors (Homo sapiens, UniProt P21554). The settings on record: cited from earlier work.
Another series deals with NMDA receptor. The settings on record: cited from earlier work.
The test system of a further series is head trauma. The settings on record: phase II; cited from earlier work.
The subject of a further series is MS patients. The settings on record: within one month after initiation of treatment; cited from earlier work.

CB2, sequence (P34972 whole entry, species assumed): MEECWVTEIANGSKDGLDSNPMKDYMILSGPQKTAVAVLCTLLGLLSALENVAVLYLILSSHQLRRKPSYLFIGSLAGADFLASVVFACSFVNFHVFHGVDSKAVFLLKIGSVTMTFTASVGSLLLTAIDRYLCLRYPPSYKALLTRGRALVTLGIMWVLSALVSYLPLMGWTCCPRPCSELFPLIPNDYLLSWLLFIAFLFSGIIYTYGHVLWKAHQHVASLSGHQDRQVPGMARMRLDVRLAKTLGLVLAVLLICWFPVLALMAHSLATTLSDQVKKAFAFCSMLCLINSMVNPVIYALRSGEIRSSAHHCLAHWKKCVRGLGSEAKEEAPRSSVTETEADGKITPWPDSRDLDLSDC
CB1 receptors, sequence (P21554 whole entry): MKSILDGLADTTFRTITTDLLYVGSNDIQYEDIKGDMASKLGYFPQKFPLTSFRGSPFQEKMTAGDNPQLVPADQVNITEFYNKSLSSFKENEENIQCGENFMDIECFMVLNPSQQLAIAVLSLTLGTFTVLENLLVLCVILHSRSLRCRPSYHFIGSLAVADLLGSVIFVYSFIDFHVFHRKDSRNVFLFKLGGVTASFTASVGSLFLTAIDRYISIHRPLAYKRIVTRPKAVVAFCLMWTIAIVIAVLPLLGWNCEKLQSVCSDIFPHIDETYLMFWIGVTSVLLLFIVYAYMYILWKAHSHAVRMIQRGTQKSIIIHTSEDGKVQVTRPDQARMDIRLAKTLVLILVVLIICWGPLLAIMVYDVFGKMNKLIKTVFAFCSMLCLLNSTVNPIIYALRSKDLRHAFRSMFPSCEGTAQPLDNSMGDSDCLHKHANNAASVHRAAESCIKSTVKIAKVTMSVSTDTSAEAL

Turning to `C=C(C)[C@@H]1CCC(C)=C[C@H]1c1c(O)cc(CCCCC)cc1O` [Cannabidiol], the “binding to CB2 receptor” value on CB2 was “does not bind”. Also, the TPA-induced erythema entry with TPA-induced erythema was “reduce”. Besides, in series [1], the psychoactivity entry is “no psychotropic”. Further, in [2], the “nitric oxide (NO) production” value is “inhibited”. Besides, in the series on human leukocytes, the IL-1 production result is “decreased”, the IL-2 secretion result was “did not affect”, the TNFα production result is “decreased” and the IFNγ synthesis entry is listed as “completely blocked”. Moreover, the IFNγ production result with human leukocytes is recorded as “increase”. Also, in the series with PBQ-induced writhing, the PBQ-induced writhing result was “inhibited”. Moreover, in the series with Legionella, the mortality entry is on record as “not affected”. The “level of mRNA of IL-1, IL-6 and TNFα” value in [3] is listed as “did not show significant change”.
The term inhibition denotes the percentage by which the read-out fell short of the control. The molecule `CCCCCCC(C)(C)c1cc(O)c2c(c1)OC(C)(C)C1CCC(=O)CC21` (stereo not drawn) [Nabilone] had an inhibition at 1 mg/kg in series [4] (Mus musculus, iv, 1 mg/kg i.v., mean change compared to baseline, maximal levels) of 45 to 50%. In addition, the “MS patients reporting some analgesic effect” value in the series on people with chronic pain is reported as “six of 16”. The levadopa-induced dyskinesia entry in [5] is given as “inhibit”.
As for `CCCCCc1cc(O)c2c(c1)OC(C)(C)[C@@H]1CCC(C)=C[C@@H]21` [THC, delta 9 tetrahydrocannabinol], the “inhibition of spasticity” value in series [4] (THC 1 mg/kg i.v.) was “capacity to induce maximal inhibition of spasticity”. In series [2], the “nitric oxide (NO) production” value is given as “inhibited”. In the series with human leukocytes, the IFNγ synthesis result is reported as “completely blocked” and the IFNγ production result is “increase”. Moreover, the tics result in series [6] is recorded as “can inhibit tics”.
As for `CCCCCCC(C)(C)c1cc(O)c2c(c1)OC(C)(C)[C@@H]1CC=C(C(=O)O)C[C@@H]21` [ajulemic acid], the “direct stimulation of CB1 receptors” value on CB1 receptors is given as “does not directly stimulate CB1 receptors to a significant extent”. Moreover, the “spasticity (limb stiffness assessed by the force required to bend the limb)” value is “inhibits spasticity” in series [4] and “anti-spastic” in [4] (listed as Ajulemic acid). Moreover, the cannabimimetic effects entry in series [1] is on record as “dose not induce cannabimimetic effects”.
On to `CCCCCCC(C)(C)c1cc(O)c2c(c1)OC(C)(C)[C@H]1CC=C(CO)C[C@H]21` [dexanabinol], for which the NMDA receptor activity entry in the series on NMDA receptor was “NMDA receptor antagonist”. Besides, in the series on head trauma, the “efficacy in head trauma” value is reported as “some efficacy”.

B1: IFN-.gamma.: cytokine administered in attempts to alleviate the symptoms of MS (protein, UniProt P01579 24-161, looked up)
Interferon gamma: QDPYVKEAENLKKYFNAGHSDVADNGTLFLGILKNWKEESDRKIMQSQIVSFYFKLFKNFKDDQSIQKSVETIKEDMNVKFFNSNKKKRDDFEKLTNYSVTDLNVQRKAIHELIQVMAELSPAAKTGKRKRSQMLFRG
As for B1, in the series with MS patients, the “patients with clinical exacerbation” value is on record as 7 of 18.
